Test results reported in patent US7259266B2, “Benzopyran compounds useful for treating inflammatory conditions” (Pharmacia Corporation, priority 2003, dated 2007).
Values joined by “and” are separate entries in the source; they are usually repeats but may differ in a detail not shown here. Identical values can stand only once.

Legend:
COX-2 [1] = target: T1, COX-2 (Homo sapiens, UniProt P35354); test: Modified assay for COX-2 activity (PGE2 formed, ELISA); type: biochemical, human or murine; details: human COX-2, replicate tests on separate lines, read-out: hCox-2 Modified IC50
T1 construct: A 2.0 kb fragment containing the coding region of either human or murine COX-1 or human or murine COX-2; made in house; host or cells: SF9 insect cells (baculovirus, pVL1393)
T1 sequence (P35354 18-604): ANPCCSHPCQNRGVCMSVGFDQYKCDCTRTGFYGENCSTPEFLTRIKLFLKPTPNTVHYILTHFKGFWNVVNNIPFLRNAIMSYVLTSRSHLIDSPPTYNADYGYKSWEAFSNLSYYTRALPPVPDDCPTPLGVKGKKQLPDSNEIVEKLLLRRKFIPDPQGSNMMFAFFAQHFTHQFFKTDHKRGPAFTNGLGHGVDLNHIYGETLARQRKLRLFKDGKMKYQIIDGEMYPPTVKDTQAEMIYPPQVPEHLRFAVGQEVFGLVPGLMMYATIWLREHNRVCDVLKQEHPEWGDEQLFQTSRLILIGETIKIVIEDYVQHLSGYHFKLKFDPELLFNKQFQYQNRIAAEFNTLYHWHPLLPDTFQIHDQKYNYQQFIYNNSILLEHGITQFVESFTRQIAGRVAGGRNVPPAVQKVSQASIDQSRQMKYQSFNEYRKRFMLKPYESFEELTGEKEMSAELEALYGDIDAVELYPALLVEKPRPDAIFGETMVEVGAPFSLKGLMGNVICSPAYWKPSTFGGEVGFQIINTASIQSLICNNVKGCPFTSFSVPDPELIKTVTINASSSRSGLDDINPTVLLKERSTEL

COX-2 [2] = target: T1, COX-2; test: Assay for COX-2 activity (PGE2 formed, ELISA); type: biochemical, human or murine; details: human COX-2, standard assay, read-out: hCox-2 IC50
Procedure: The COX-2 inhibition activity of the compounds of this invention illustrated in the Examples were determined by the following methods.
A 2.0 kb fragment containing the coding region of either human or murine COX-1 or human or murine COX-2 was cloned into a BamHl site of the baculovirus transfer vector pVL1393 (Invitrogen) to generate the baculovirus transfer vectors for COX-1 and COX-2 in a manner similar to the method of D.R. O'Reilly et al (Baculovirus Expression Vectors: A Laboratory Manual (1992)). Recombinant baculoviruses were isolated by transfecting 4 μg of baculovirus transfer vector DNA into SF9 insect cells (2×10^8) along with 200 ng of linearized baculovirus plasmid DNA by the calcium phosphate method. […] Recombinant viruses were purified by three rounds of plaque purification and high titer (10^7-10^8 pfu/mL) stocks of virus were prepared. For large scale production, SF9 insect cells were infected in 10 liter fermentors (0.5×10^6/mL) with the recombinant baculovirus stock such that the multiplicity of infection was 0.1. After 72 hours the cells were centrifuged and the cell pellet homogenized in Tris/Sucrose (50 mM: 25%, pH 8.0) containing 1% 3-[(3-cholamidopropyl)dimethylammonio]-1-propanesulfonate (CHAPS). The homogenate was centrifuged at 10,000×G for 30 minutes, and the resultant supernatant was stored at −80° C. before being assayed for COX activity.
COX activity was assayed as PGE2 formed/lg protein/time using an ELISA to detect the prostaglandin released. CHAPS-solubilized insect cell membranes containing the appropriate COX enzyme were incubated in a potassium phosphate buffer (50 mM, pH 8.0) containing epinephrine, phenol, and heme with the addition of arachidonic acid (10 μM). Compounds were pre-incubated with the enzyme for 10-20 minutes prior to the addition of arachidonic acid. […] The PGE2 formed was measured by standard ELISA technology (Cayman Chemical).

SMILES: O=C(O)C1=Cc2cc(Cl)c(Oc3ccc4c(c3)OCO4)cc2O[C@H]1C(F)(F)F (single isomer, unassigned) [Example 958a]
- IC50 (COX-2 [1]): 29.3 nM and ≤ 137 nM
- IC50 (COX-2 [2]; replicate tests on separate lines): 35.8 nM and ≤ 137 nM

SMILES: CCCOc1c(Cl)cc(Cl)c2c1OC(C(F)(F)F)C(C(=O)O)=C2 (stereo not shown) [Example 23f, 5,7-dichloro-8-propoxy-2-(trifluoromethyl)-2H-chromene-3-carboxylic acid]
- IC50 (COX-2 [2]): > 500000 nM

SMILES: Nc1c(Cl)cc(Oc2cccc3c2OC(C(F)(F)F)C(C(=O)O)=C3)c(F)c1Cl (stereo not shown) [Example 25d, 8-(4-amino-3,5-dichloro-2-fuorophenoxy)-2-(trifluoromethyl)-2H-chromene-3-carboxylic acid]
- IC50 (COX-2 [2]): > 33300 nM
